Results reported in patent publication US10543212B2, “Substituted amines for treating cardiac diseases” (Cardurion Pharmaceuticals, LLC, priority 2017, dated 2020).
pIC50: −log10 of the molar value.

Target: T1, Full-length, GST-tagged, human CaMKIIδ (Homo sapiens, UniProt Q13557)
T1 construct: Full-Length, Glutathione-S-Transferase(GST)-Tagged, Human CaMKIIδ was purchased from Carna Biosciences; purchased Carna Biosciences 02-111
Assay: CaMKIIδ binding assay (TR-FRET with BODIPY-labeled probe ligand)
Settings: CaMKIIδ binding assay, results of Table 2
Protocol: In vitro CaMKIIδ inhibitory activity was evaluated by a binding assay.
Full-Length, Glutathione-S-Transferase(GST)-Tagged, Human CaMKIIδ was purchased from Carna Biosciences (product #02-111, Kobe, Japan). Full-length bovine calmodulin was purchased from Wako Pure Chemical Industries (Osaka, Japan). Terbium-labeled anti-GST antibody (Tb-anti-GST Ab) was purchased from Life Technologies (Carlsbad, Calif., USA). Boron-dipyrromethene (BODIPY)-labeled probe ligand was synthesized as described below.
Time-Resolved Fluorescence Resonance Energy Transfer (TR-FRET) Assay
All assays were conducted using 384-well, white, flat-bottomed plates (product #784075, Greiner Bio-One, Frickenhausen, Germany) in kinase assay buffer, which consists of 50 mM HEPES pH 7.6, 10 mM MgCl2, 1 mM EGTA, 0.01% Brig-35, 0.1 mM DTT). The fluorescent probe ligand was added at a final concentration of 300 nM to solutions containing 0.21 nM Tb-anti-GST Ab, 1 mM CaCl2), 10 μg/mL calmodulin, and 0.5 nM GST-tagged CaMKIIδ. After shaded incubation of the protein-probe mixture on ice for 30 min, the premix was dispensed in the assay plate including test inhibitors with 4 fold dilution series of eight concentrations. After 1 hr incubation at room temperature, TR-FRET signals were measured in duplicate using an EnVision microplate reader (Perkin Elmer, Waltham, Mass., USA). The solution in each well was excited with a laser (λ=340 nm) reflected by a dichroic mirror (D400/D505 (Perkin Elmer) through an excitation filter (UV (TRF) 340, (Perkin Elmer)), and fluorescence from Tb and BODIPY were detected through two emission filters (CFP 495 (Perkin Elmer) for Tb, Emission 520 (Perkin Elmer) for BODIPY).
The percentage of inhibition of test compounds was calculated according to equation (1) Inhibition (%)=100×([…]−T)/(μH−μL) (1)
Where T is the value of the wells containing test compounds and μH and μL are the mean values of the 0% and 100% inhibition control wells, respectively. The values of the 0 and 100% controls were the signals obtained in the absence and presence of 3 μM its parent compound, respectively. The half maximal inhibitory concentration (IC50) of test compounds was calculated by fitting the data with the logistic equation using XLfit (IDBS, Guildford, UK). The IC50 was classified according to the following activity ranks.

T1 sequence (Q13557 1-478 isoform Q13557-12): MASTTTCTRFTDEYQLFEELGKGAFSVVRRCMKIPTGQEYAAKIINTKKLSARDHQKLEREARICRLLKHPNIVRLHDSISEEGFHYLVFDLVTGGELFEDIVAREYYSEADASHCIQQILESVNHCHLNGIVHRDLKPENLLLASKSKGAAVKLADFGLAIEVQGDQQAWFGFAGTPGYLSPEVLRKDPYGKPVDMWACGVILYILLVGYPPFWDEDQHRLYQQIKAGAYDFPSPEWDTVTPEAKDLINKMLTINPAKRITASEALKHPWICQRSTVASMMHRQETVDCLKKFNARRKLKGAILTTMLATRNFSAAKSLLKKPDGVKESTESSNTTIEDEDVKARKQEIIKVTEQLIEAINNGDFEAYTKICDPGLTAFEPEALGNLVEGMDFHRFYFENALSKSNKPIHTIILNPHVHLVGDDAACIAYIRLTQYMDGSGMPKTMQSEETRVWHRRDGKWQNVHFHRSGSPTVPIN

SMILES	pIC50
COc1ccc(CN2CCS(=O)(=O)CC2)cc1Nc1ncc(-c2ccc(Cl)c(O[C@@H](C)Cn3cnnn3)c2)cn1 [Example 449, (S)-4-(3-((5-(3-((1-(1H-tetrazol-1-yl)propan-2-yl)oxy)-4-chlorophenyl)pyrimidin-2-yl)amino)-4-methoxybenzyl)thiomorpholine 1,1-dioxide]	7.00 to 8.00
C[C@@H](Cn1cnnn1)Oc1cc(-c2cnc(Nc3ccc4c(c3)CCN4C(=O)OC(C)(C)C)nc2)ccc1Cl [Example 450, tert-butyl (S)-5-((5-(3-((1-(1H-tetrazol-1-yl)propan-2-yl)oxy)-4-chlorophenyl)pyrimidin-2-yl)amino)indoline-1-carboxylate]	≤ 7.00
C[C@@H](Cn1cnnn1)Oc1cc(-c2cnc(Nc3ccc4c(c3)CCN4)nc2)ccc1Cl [Example 451, (S)-N-(5-(3-((1-(1H-tetrazol-1-yl)propan-2-yl)oxy)-4-chlorophenyl)pyrimidin-2-yl)indolin-5-amine]	7.00 to 8.00
C[C@@H](Cn1cnnn1)Oc1cc(-c2cnc(Nc3ccc4c(c3)CCN4C(=O)C3CCN(C)CC3)nc2)ccc1Cl [Example 452, (S)-(5-((5-(3-((1-(1H-tetrazol-1-yl)propan-2-yl)oxy)-4-chlorophenyl)pyrimidin-2-yl)amino)indolin-1-yl) (1-methylpiperidin-4-yl)methanone]	> 8.00
Cc1cc(N2CCC(N3CCOCC3)CC2)ccc1Nc1ncc(-c2ccc(Cl)c(O[C@@H](C)Cn3cnnn3)c2)cn1 [Example 453, (S)-5-(3-((1-(1H-tetrazol-1-yl)propan-2-yl)oxy)-4-chlorophenyl)-N-(2-methyl-4-(4-morpholinopiperidin-1-yl)phenyl)pyrimidin-2-amine]	> 8.00
COc1cc2c(cc1Nc1ncc(-c3ccc(Cl)c(O[C@@H](C)Cn4cnnn4)c3)cn1)CN(C1COC1)CCO2 [Example 454, (S)-N-(5-(3-((1-(1H-tetrazol-1-yl)propan-2-yl)oxy)-4-chlorophenyl)pyrimidin-2-yl)-8-methoxy-4-(oxetan-3-yl)-2,3,4,5-tetrahydrobenzo[f][1,4]oxazepin-7-amine]	≤ 7.00
COc1ccc(N2CCCC(N3CCOCC3)C2)cc1Nc1ncc(-c2ccc(Cl)c(O[C@@H](C)Cn3cnnn3)c2)cn1 (stereo partly drawn) [Example 455, 5-(3-(((S)-1-(1H-tetrazol-1-yl)propan-2-yl)oxy)-4-chlorophenyl)-N-(2-methoxy-5-(3-morpholinopiperidin-1-yl)phenyl)pyrimidin-2-amine]	7.00 to 8.00
COc1cnc(N2CCC(N3CCOCC3)CC2)cc1Nc1ncc(-c2ccc(Cl)c(O[C@@H](C)Cn3cnnn3)c2)cn1 [Example 456, (S)-5-(3-((1-(1H-tetrazol-1-yl)propan-2-yl)oxy)-4-chlorophenyl)-N-(5-methoxy-2-(4-morpholinopiperidin-1-yl)pyridin-4-yl)pyrimidin-2-amine]	> 8.00
COc1cnc(N2CCCC(N3CCOCC3)C2)cc1Nc1ncc(-c2ccc(Cl)c(O[C@@H](C)Cn3cnnn3)c2)cn1 (stereo partly drawn) [Example 457, 5-(3-(((S)-1-(1H-tetrazol-1-yl)propan-2-yl)oxy)-4-chlorophenyl)-N-(5-methoxy-2-(3-morpholinopiperidin-1-yl)pyridin-4-yl)pyrimidin-2-amine]	7.00 to 8.00
COc1cc2c(cc1Nc1ncc(-c3ccc(C#N)c(O[C@@H](C)Cn4cnnn4)c3)cn1)CCN(C(=O)C(F)(F)F)C2 [Example 458, (S)-2-((1-(1H-tetrazol-1-yl)propan-2-yl)oxy)-4-(2-((7-methoxy-2-(2,2,2-trifluoroacetyl)-1,2,3,4-tetrahydroisoquinolin-6-yl)amino)pyrimidin-5-yl)benzonitrile]	7.00 to 8.00
COc1cc2c(cc1Nc1ncc(-c3ccc(Cl)c(O[C@@H](C)Cn4cnnn4)c3)cn1)CCN(C(=O)CN(C)C)C2 [Example 459, (S)-1-(6-((5-(3-((1-(1H-tetrazol-1-yl)propan-2-yl)oxy)-4-chlorophenyl)pyrimidin-2-yl)amino)-7-methoxy-3,4-dihydroisoquinolin-2(1H)-yl)-2-(dimethylamino)ethan-1-one]	> 8.00
COc1cc2c(cc1Nc1ncc(-c3ccc(Cl)c(O[C@@H](C)Cn4cnnn4)c3)cn1)CN(C(=O)C(F)(F)F)CC2 [Example 460, (S)-1-(7-((5-(3-((1-(1H-tetrazol-1-yl)propan-2-yl)oxy)-4-chlorophenyl)pyrimidin-2-yl)amino)-6-methoxy-3,4-dihydroisoquinolin-2(1H)-yl)-2,2,2-trifluoroethan-1-one]	≤ 7.00
COc1cc2c(cc1Nc1ncc(-c3ccc(Cl)c(O[C@@H](C)Cn4cnnn4)c3)cn1)CNCC2 [Example 461, (S)-N-(5-(3-((1-(1H-tetrazol-1-yl)propan-2-yl)oxy)-4-chlorophenyl)pyrimidin-2-yl)-6-methoxy-1,2,3,4-tetrahydroisoquinolin-7-amine]	> 8.00
Cc1ncc(N2CCC(N3CCOCC3)CC2)cc1Nc1ncc(-c2ccc(Cl)c(O[C@@H](C)Cn3cnnn3)c2)cn1 [Example 462, (S)-5-(3-((1-(1H-tetrazol-1-yl)propan-2-yl)oxy)-4-chlorophenyl)-N-(2-methyl-5-(4-morpholinopiperidin-1-yl)pyridin-3-yl)pyrimidin-2-amine]	> 8.00
COc1cc2c(cc1Nc1ncc(-c3ccc(Cl)c(O[C@@H](C)Cn4cnnn4)c3)cn1)CN(C1COC1)CC2 [Example 463, (S)-N-(5-(3-((1-(1H-tetrazol-1-yl)propan-2-yl)oxy)-4-chlorophenyl)pyrimidin-2-yl)-6-methoxy-2-(oxetan-3-yl)-1,2,3,4-tetrahydroisoquinolin-7-amine]	> 8.00
COc1cc2c(cc1Nc1ncc(-c3ccc(Cl)c(O[C@@H](C)Cn4cnnn4)c3)cn1)CN(C(=O)CN(C)C)CC2 [Example 464, (S)-1-(7-((5-(3-((1-(1H-tetrazol-1-yl)propan-2-yl)oxy)-4-chlorophenyl)pyrimidin-2-yl)amino)-6-methoxy-3,4-dihydroisoquinolin-2(1H)-yl)-2-(dimethylamino)ethan-1-one]	> 8.00
COc1cc2c(cc1Nc1ncc(-c3ccc(Cl)c(O[C@@H](C)Cn4cnnn4)c3)cn1)CCNC2 [Example 465, (S)-N-(5-(3-((1-(1H-tetrazol-1-yl)propan-2-yl)oxy)-4-chlorophenyl)pyrimidin-2-yl)-7-methoxy-1,2,3,4-tetrahydroisoquinolin-6-amine]	> 8.00
COc1cc2c(cc1Nc1ncc(-c3ccc(Cl)c(O[C@@H](C)Cn4cnnn4)c3)cn1)N(C(C)=O)CC2 [Example 466, (S)-1-(6-((5-(3-((1-(1H-tetrazol-1-yl)propan-2-yl)oxy)-4-chlorophenyl)pyrimidin-2-yl)amino)-5-methoxyindolin-1-yl)ethan-1-one]	7.00 to 8.00
COc1cc2c(cc1Nc1ncc(-c3ccc(Cl)c(O[C@@H](C)Cn4cnnn4)c3)cn1)CN(C1COC1)CCC2 [Example 467, (S)-N-(5-(3-((1-(1H-tetrazol-1-yl)propan-2-yl)oxy)-4-chlorophenyl)pyrimidin-2-yl)-7-methoxy-2-(oxetan-3-yl)-2,3,4,5-tetrahydro-1H-benzo[c]azepin-8-amine]	7.00 to 8.00
COc1cc2c(cc1Nc1ncc(-c3ccc(Cl)c(O[C@@H](C)Cn4cnnn4)c3)cn1)CCN(C1COC1)C2 [Example 468, (S)-N-(5-(3-((1-(1H-tetrazol-1-yl)propan-2-yl)oxy)-4-chlorophenyl)pyrimidin-2-yl)-7-methoxy-2-(oxetan-3-yl)-1,2,3,4-tetrahydroisoquinolin-6-amine]	> 8.00
COCC(=O)N1CCc2cc(Nc3ncc(-c4ccc(Cl)c(O[C@@H](C)Cn5cnnn5)c4)cn3)c(OC)cc2C1 [Example 469, (S)-1-(6-((5-(3-((1-(1H-tetrazol-1-yl)propan-2-yl)oxy)-4-chlorophenyl)pyrimidin-2-yl)amino)-7-methoxy-3,4-dihydroisoquinolin-2(1H)-yl)-2-methoxyethan-1-one]	7.00 to 8.00
COc1cc2c(cc1Nc1ncc(-c3ccc(Cl)c(O[C@@H](C)Cn4cnnn4)c3)cn1)CCN(C(=O)CN1CCOCC1)C2 [Example 470, (S)-1-(6-((5-(3-((1-(1H-tetrazol-1-yl)propan-2-yl)oxy)-4-chlorophenyl)pyrimidin-2-yl)amino)-7-methoxy-3,4-dihydroisoquinolin-2(1H)-yl)-2-morpholinoethan-1-one]	> 8.00
COc1cc2c(cc1Nc1ncc(-c3ccc(Cl)c(O[C@@H](C)Cn4cnnn4)c3)cn1)CCN(C=O)C2 [Example 471, (S)-6-((5-(3-((1-(1H-tetrazol-1-yl)propan-2-yl)oxy)-4-chlorophenyl)pyrimidin-2-yl)amino)-7-methoxy-3,4-dihydroisoquinoline-2(1H)-carbaldehyde]	7.00 to 8.00
